The record followed here is ChEMBL document CHEMBL4431295 (Medchemcomm, 2016).

Experiment [1] concerns SK-N-SH. Put plainly: Antiproliferative activity against human SK-N-SH cells after 72 hrs by MTT assay. The format is functional, cell-based. (In general: Tetrazolium dyes change colour on reduction, which living cells bring about.)
Experiment [2] has as its system MGC-803. Description: Antiproliferative activity against human MGC803 cells after 72 hrs by MTT assay. The class given is functional, cell-based. The following applies: MGC-803, 72 h.
The test system of experiment [3] is HepG2. Put plainly: Antiproliferative activity against human HepG2 cells after 72 hrs by MTT assay. The format is functional, cell-based. The following applies: HepG2, 72 h.
The subject of experiment [4] is GES1. Put plainly: Cytotoxicity against human GES-1 cells assessed as cell growth inhibition after 72 hrs by MTT assay. The class given is cell-based. As to conditions: GES1, 72 h.

In general, IC50 refers to the concentration needed to halve the response being measured.

Structures are written as SMILES. Some results are limits rather than exact numbers.

For `O=C(/C=C/c1ccco1)c1ccc(NCc2cn(Cc3ccccc3)nn2)cc1`, the values for the IC50 in experiment [1], in experiment [2] and in experiment [3] were 39.2 µM, 37.3 µM and 42.5 µM, respectively.
In the same order, the values of `O=C(/C=C/c1cc(Cl)cc(Cl)c1)c1ccc(NCc2cn(Cc3ccccc3)nn2)cc1` are 20.5 µM, 16.8 µM and 23.4 µM.
In the same order, the values of `O=C(/C=C/c1cccnc1)c1ccc(NCc2cn(Cc3ccc(C(F)(F)F)cc3)nn2)cc1` are 7.26 µM, 7.19 µM and 9.24 µM.
Turning to `O=C(/C=C/c1ccc(Cl)cc1Cl)c1ccc(OCc2cn(Cc3ccccc3)nn2)cc1`, the IC50 is 36.4 µM in experiment [1], more than 64 µM in experiment [2] and 27.9 µM in experiment [3].
Consider `O=C(/C=C/c1cccc(Cl)c1)c1ccc(OCc2cn(Cc3ccccc3)nn2)cc1`, for which the IC50 in experiment [1] is 19.6 µM; in experiment [2], more than 64 µM; in experiment [3], 24 µM.
On to `COc1ccccc1/C=C/C(=O)c1ccc(OCc2cn(Cc3ccccc3)nn2)cc1`, for which the IC50 in experiment [1] was 26.7 µM; in experiment [2], more than 64 µM; in experiment [3] it was 24.8 µM.
In the same order, the values of `Nc1ccc(C(=O)/C=C/c2cccs2)cc1` are more than 64 µM, more than 64 µM and more than 64 µM.
On to `O=c1[nH]cc(F)c(=O)[nH]1` [FLUOROURACIL], for which the IC50 was 10.3 µM in experiment [1], 7.22 µM in experiment [2], 7.22 µM in experiment [4] and 10.3 µM in experiment [3].
In the case of `O=C(/C=C/c1cccnc1)c1ccc(NCc2cn(Cc3ccccc3)nn2)cc1`, the IC50 in experiment [1] came to 5.15 µM; in experiment [2] it was 3.43 µM; in experiment [3], 4.37 µM.
In the same order, the values of `O=C(/C=C/c1ccccc1F)c1ccc(OCc2cn(Cc3ccccc3)nn2)cc1` are 28.6 µM, 50.6 µM and 18.4 µM.
`O=C(/C=C/c1ccc([N+](=O)[O-])cc1)c1ccc(OCc2cn(Cc3ccccc3)nn2)cc1`: the IC50 in experiment [1] came out at 11.6 µM; in experiment [2] it was 29.8 µM; in experiment [3], 24.4 µM.
In the same order, the values of `CN1CCN(c2ccc(/C=C/C(=O)c3ccc(OCc4cn(Cc5ccccc5)nn4)cc3)cc2F)CC1` are 6.44 µM, 11.6 µM and 5.47 µM.
In the same order, the values of `COc1ccc(/C=C/C(=O)c2ccc(OCc3cn(Cc4ccccc4)nn3)cc2)c(OC)c1OC` are 14.5 µM, 37.2 µM and 9.35 µM.
Consider `O=C(/C=C/c1ccc(Cl)cc1)c1ccc(OCc2cn(Cc3ccccc3)nn2)cc1`, for which the IC50 in experiment [1] is 17.5 µM; in experiment [2], 43.2 µM; in experiment [3], 21 µM.
In the same order, the values of `O=C(/C=C/c1cccs1)c1ccc(NCc2cn(Cc3ccc(Cl)cc3)nn2)cc1` are 30.9 µM, 29.6 µM and 39.2 µM.
In the same order, the values of `O=C(/C=C/c1cc(F)cc(F)c1)c1ccc(NCc2cn(Cc3ccccc3)nn2)cc1` are 27.3 µM, 23.5 µM and more than 64 µM.
In the same order, the values of `COc1cccc(Cn2cc(CNc3ccc(C(=O)/C=C/c4ccc(Cl)cc4)cc3)nn2)c1` are 21.2 µM, 38.6 µM and 34.7 µM.
As to `O=C(/C=C/c1ccc(F)cc1)c1ccc(NCc2cn(Cc3ccccc3)nn2)cc1`, the IC50 in experiment [1] was found to be 42.4 µM; in experiment [2] it was 40.2 µM; in experiment [3], 38.8 µM.
In the same order, the values of `O=C(/C=C/c1ccncc1)c1ccc(NCc2cn(Cc3ccccc3)nn2)cc1` are 5.23 µM, 17.1 µM and 7.02 µM.
Turning to `O=C(/C=C/c1cccnc1)c1ccc(OCc2cn(Cc3ccccc3)nn2)cc1`, the 50% inhibitory concentration (IC50) in experiment [1] is 6.37 µM; in experiment [2], 10.2 µM; in experiment [3] it was 5.22 µM.
In the same order, the values of `Nc1ccc(C(=O)/C=C/c2ccco2)cc1` are 48.9 µM, more than 64 µM and more than 64 µM.
In the same order, the values of `COc1cc(OC)c(/C=C/C(=O)c2ccc(NCc3cn(Cc4ccccc4)nn3)cc2)c(OC)c1` are 6.26 µM, 6.26 µM and 10.4 µM.
In the same order, the values of `Nc1ccc(C(=O)/C=C/c2ccc(Cl)cc2)cc1` are 58.2 µM, 61.2 µM and 55.6 µM.
Take `O=C(/C=C/c1cccnc1)c1ccc(NCc2cn(Cc3ccc(Cl)cc3)nn2)cc1`: the IC50 in experiment [1] turned out to be 4.36 µM; in experiment [2] it was 7.03 µM; in experiment [3], 9.32 µM.
`O=C(/C=C/c1cccnc1)c1ccc(NCc2cn(Cc3ccccc3C(F)(F)F)nn2)cc1`: the IC50 in experiment [1] came out at 7.29 µM; in experiment [2] it was 3.15 µM; in experiment [4], 54.7 µM; in experiment [3] it was 6.92 µM.
On to `O=C(/C=C/c1ccncc1)c1ccc(OCc2cn(Cc3ccccc3)nn2)cc1`, for which the IC50 stood at 7.43 µM in experiment [1], 26.1 µM in experiment [2] and 11.4 µM in experiment [3].
